Source: BindingDB's records for doi:10.1124/jpet.102.044826 (Taisho Pharmaceutical, 2003)

Legend:
[1] = molecular target: T1, Alpha-1A adrenergic receptor (Rattus norvegicus, UniProt P43140)
T1 sequence (P43140 whole entry): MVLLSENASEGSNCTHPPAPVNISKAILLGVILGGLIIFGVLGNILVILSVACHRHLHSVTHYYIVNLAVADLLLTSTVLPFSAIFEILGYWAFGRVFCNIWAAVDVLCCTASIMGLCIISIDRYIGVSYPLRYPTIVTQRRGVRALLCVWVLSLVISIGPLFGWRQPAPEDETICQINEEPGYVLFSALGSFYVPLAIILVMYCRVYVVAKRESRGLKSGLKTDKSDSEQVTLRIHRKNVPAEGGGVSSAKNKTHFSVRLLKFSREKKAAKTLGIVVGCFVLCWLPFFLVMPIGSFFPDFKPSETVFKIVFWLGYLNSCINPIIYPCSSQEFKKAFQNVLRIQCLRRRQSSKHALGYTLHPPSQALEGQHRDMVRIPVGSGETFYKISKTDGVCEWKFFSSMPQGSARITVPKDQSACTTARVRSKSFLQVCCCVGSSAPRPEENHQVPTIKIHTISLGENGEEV

[2] = molecular target: T2, Alpha-2C adrenergic receptor (Homo sapiens, UniProt P18825)
T2 sequence (P18825 whole entry): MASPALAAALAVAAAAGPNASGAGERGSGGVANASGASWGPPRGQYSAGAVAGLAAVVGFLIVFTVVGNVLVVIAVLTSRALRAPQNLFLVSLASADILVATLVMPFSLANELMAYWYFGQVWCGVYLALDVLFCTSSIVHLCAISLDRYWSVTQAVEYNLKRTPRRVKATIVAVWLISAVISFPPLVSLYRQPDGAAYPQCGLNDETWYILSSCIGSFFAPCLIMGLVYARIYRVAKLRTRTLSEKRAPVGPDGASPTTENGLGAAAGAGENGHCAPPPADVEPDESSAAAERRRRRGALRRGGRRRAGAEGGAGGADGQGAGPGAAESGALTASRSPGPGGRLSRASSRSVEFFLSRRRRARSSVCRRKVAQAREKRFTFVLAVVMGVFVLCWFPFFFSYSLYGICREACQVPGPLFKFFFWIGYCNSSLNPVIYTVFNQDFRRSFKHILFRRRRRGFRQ

IC50 [1]: 0.63 µM | IC50 [2]: 1 µM
SMILES: COc1ccc2ccccc2c1CCCCN1CCN(C[C@H](c2ccc(F)cc2)N2CCN(C(C)C)CC2)CC1 [MCL0129]
